Some results are limits rather than exact numbers.

As a reminder, the Kd is the constant that tells how readily two partners part at equilibrium.

The target in one experiment is Bcl-xL. On the set-up: method as in PMID 16420051. As to conditions: bound to Bcl-xL; cited from earlier work.
Experiment [1] concerns the target T1, N-terminal domain of HSP90 (Homo sapiens, UniProt P07900).
T1 construct: the N-terminal domain (9–236) of HSP-90 were produced and purified; made in house; host or cells: Escherichia coli
Kind of experiment: WaterLOGSY NMR epitope mapping, HSP90. It counts as binding. Conditions: proton H1, bound to HSP90, 1.5 s mixing time, normalised. The method, then: (§1) NMR samples for STD experiments consisted of 400 µM fragment in 0.5% DMSO-d6 and 10% D2O (v/v) together with a protein concentration of 20 µM for peroxiredoxin and HSP90, 10 µM for Bcl-xL, 15 µM for Mcl-1, 2 µM for glycogen phosphorylase, and 5 µM for HSA.
(§2) Standard 1 D, STD, and WaterLOGSY NMR spectra were acquired at 20 °C with an Agilent Inova 600 MHz NMR spectrometer, equipped with a room temperature 5 mm triple-resonance inverse probe with z-axis field gradient and a Bruker 600 MHz NMR spectrometer, equipped with a Z-gradient cryoprobe.
(§3) WaterLOGSY mixing time was 1.5 s, and additional experiments were performed with 0.75 s and 0.25 s mixing time. Both STD and WaterLOGSY spectra were recorded for each sample. WaterLOGSY spectra in the absence of protein receptor were recorded with 400 µM compound. All the NMR experiments were performed at 293 K with excitation sculpting to suppress peaks from water. […] The STD factors were calculated according to the following equation: R=(ISTD/I1D)×100) were ISTD and I1D are the intensity of proton resonances of the STD and the 1 D proton spectra, respectively. […]
(§4) This is due to the WaterLOGSY mechanism that involves magnetisation transfer from bulk water. Therefore, we propose the following protocol to quantitatively evaluate the WaterLOGSY signals of the protons of a compound bound to its receptor. […]

Experiment [2] concerns the target N-terminal domain (9–236) of HSP90. Further details: method as in PMID 20718493. As to conditions: bound to HSP90; cited from earlier work.
The target of experiment [3] is T2, glycogen phosphorylase (GP) (Oryctolagus cuniculus, UniProt P00489).
T2 sequence (P00489 1-843): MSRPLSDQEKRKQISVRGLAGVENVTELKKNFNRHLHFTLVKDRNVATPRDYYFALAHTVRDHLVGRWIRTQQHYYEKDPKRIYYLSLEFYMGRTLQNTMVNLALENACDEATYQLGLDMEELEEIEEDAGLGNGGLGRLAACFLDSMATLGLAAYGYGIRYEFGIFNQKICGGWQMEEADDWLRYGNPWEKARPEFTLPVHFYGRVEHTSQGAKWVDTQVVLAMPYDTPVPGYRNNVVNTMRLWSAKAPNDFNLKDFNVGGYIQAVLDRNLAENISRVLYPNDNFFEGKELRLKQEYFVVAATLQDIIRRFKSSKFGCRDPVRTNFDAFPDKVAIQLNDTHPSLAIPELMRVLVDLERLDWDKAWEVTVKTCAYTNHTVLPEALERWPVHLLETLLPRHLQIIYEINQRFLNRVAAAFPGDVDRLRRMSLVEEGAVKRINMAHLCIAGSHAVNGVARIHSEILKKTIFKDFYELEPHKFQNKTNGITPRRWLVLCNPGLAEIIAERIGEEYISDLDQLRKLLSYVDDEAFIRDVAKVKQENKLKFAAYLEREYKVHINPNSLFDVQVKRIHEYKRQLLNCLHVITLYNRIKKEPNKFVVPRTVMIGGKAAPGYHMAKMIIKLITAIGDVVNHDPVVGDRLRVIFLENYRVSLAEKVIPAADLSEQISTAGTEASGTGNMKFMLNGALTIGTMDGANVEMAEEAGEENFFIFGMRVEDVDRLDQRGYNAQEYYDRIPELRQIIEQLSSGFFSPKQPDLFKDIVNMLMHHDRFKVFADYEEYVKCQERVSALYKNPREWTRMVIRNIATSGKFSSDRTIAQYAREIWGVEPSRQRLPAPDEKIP
Description: Dissociation constant of fragment bound to GP. It is filed as binding, rabbit. Conditions: unpublished data.

The target in experiment [4] is T3, human serum albumin (HSA) (Homo sapiens, UniProt P02768).
T3 construct: purchased Sigma A3782
T3 sequence (P02768 25-609): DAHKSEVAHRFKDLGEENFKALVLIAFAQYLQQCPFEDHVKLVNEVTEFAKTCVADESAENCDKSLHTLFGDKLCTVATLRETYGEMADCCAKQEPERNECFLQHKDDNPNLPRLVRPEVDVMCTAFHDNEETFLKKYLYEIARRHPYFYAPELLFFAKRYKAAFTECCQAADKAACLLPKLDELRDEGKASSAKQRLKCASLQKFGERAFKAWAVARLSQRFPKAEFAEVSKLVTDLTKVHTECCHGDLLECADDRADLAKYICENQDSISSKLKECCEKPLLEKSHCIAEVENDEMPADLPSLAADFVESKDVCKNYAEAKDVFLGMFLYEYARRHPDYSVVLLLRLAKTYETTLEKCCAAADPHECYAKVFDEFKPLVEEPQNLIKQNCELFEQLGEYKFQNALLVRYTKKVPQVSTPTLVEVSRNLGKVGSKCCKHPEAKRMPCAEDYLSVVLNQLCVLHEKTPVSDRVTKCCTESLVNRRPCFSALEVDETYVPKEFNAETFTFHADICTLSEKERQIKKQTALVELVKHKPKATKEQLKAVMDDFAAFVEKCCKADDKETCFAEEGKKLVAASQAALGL
Kind of experiment: WaterLOGSY NMR epitope mapping, HSA. It is filed as binding. As to conditions: all protons, bound to HSA, 1.5 s mixing time, normalised. The method, then:
as §1, §2, §3, §4

Experiment [5] concerns the target T3, human serum albumin (HSA). Description: Dissociation constant of fragment bound to HSA. It counts as binding.

Take `O=C(O)c1ccc(-c2ccc(F)cc2)cc1` [Compound 5, 4′-fluoro-[1,1′-biphenyl]-4-carboxylic acid]: the Kd at Bcl-xL was 300 µM.

In experiment [1], `CCN(CC)C(=O)c1ccc(O)c(OC)c1` [Compound 4, N,N-diethylvanillamide] came in with a WLOGSY factor of 10%. Also, the Kd in experiment [2] was 790 µM.

Take `O=C(O)c1ccc(Oc2ccccc2)cc1` [Compound 6, 4-phenoxybenzoic acid]: in experiment [3], the Kd was more than 1000 µM.

Molecule `Cc1ccc(O)c(O)c1` [Compound 1, 4-methylcatechol] displayed a WLOGSY factor in experiment [4] of 100%. In addition, the Kd in experiment [5] is more than 1000 µM.

The values are drawn from PMC6691826, “1D NMR WaterLOGSY as an efficient method for fragment-based lead discovery” (Journal of Enzyme Inhibition and Medicinal Chemistry, 2019).
